Entries after “also recorded” stand apart in the source; their conditions may differ.
Tests used:
Type in all cases: in vivo, human
keloid [1] = assay: Prior treatment of keloid nodules with intralesional triamcinolone injections; conditions: before dupilumab
keloid [2] = assay: Clinical keloid response to dupilumab in a subject with severe atopic dermatitis and two keloid nodules
Source text: (A) On the right popliteal fossa, a large depigmented keloid (denoted by the dotted arrow) measured at 3.5 cm horizontal, 2.8 cm vertical, and 2.1 cm, and a smaller adjacent keloid (denoted by the bold arrow) measured at 1.2 cm horizontal, 0.7 cm vertical, and 1.1 cm, August 2018. […] Images to scale and taken with different perspectives. Th2-specific inflammatory biomarkers (C-E) measured by quantitative real-time PCR in healthy skin and keloid non-lesional (NL) and lesional (LS) skin. Black stars: significance of comparison between keloid skin and controls. Black lines within boxes represent median values; bold red lines represent mean values. Each black dot represents an individual patient; ^+P<0.1, *P<0.05.
A subject afflicted with severe atopic dermatitis (AD) (body surface area/BSA 70%; SCORing of AD/SCORAD, 50; Eczema Area and Severity Index/EASI, 33) post-inflammatory hypopigmentation, and two keloid nodules was treated with dupilumab. […] Both nodules were present for more than 2 years. […] The subject received 300 mg subcutaneous dupilumab injections for severe AD, administered every 2 weeks for a month.

keloids = assay: Clinical keloid response to dupilumab injections in African American keloid patients
Description: (A) The image depicts keloids before treatment with dupilumab in a patient. (B) The image depicts keloids in a patient after 1.5 months of treatment with dupilumab (subcutaneous injections of 300 mg every week, after 600 mg induction at baseline). (C) The image depicts keloids in the same patient at the end of the third month of treatment with dupilumab.
A subject with keloids, but without other dermatological symptoms, was treated with dupilumab. The subject received 300 mg subcutaneous dupilumab injections, administered weekly.
The inventors observed a significant keloid reduction in yet a third patient treated with dupilumab. Another patient with keloids, but no other dermatological symptoms, received weekly subcutaneous injections of dupilumab (300 mg) and observed a positive response.
In addition, only the weekly injections were sufficient to maintain the size reduction and to treat the pain and irritation associated with the keloids in the afflicted patients.

[3] = after 3 months, weekly subcutaneous 300 mg
[4] = after 3 months, weekly subcutaneous 300 mg after 600 mg induction

C[C@]12C=CC(=O)C=C1CC[C@H]1[C@@H]3C[C@@H](O)[C@](O)(C(=O)CO)[C@@]3(C)C[C@H](O)[C@@]12F [triamcinolone]
keloid response to prior intralesional treatment (keloid [1]): minimal improvement

dupilumab
outcome of the smaller adjacent keloid (keloid [2]; after dupilumab treatment (seven months), before treatment 1.2 cm horizontal, 0.7 cm vertical, 1.1 cm): complete disappearance | larger keloid nodule size, third (unnamed) dimension, after dupilumab (keloid [2]; post-treatment, before treatment 2.1 cm): 0.9 cm | larger keloid nodule size, vertical, after dupilumab (keloid [2]; post-treatment, before treatment 2.8 cm): 1 cm | larger keloid nodule size, horizontal, after dupilumab (keloid [2]; post-treatment, before treatment 3.5 cm): 1.6 cm | reduction in size of the large keloid (keloid [2]; seven months after dupilumab treatment, 300 mg subcutaneous every 2 weeks for a month, right popliteal fossa): > 50% | change in keloid size (FIG. 3 patient) (keloids; 3 months, 300 mg subcutaneous every week after 600 mg induction at baseline): noticeable reduction in the keloid size; also recorded: reduction in size and depth | keloid shrinkage in diameter (FIG. 5 patient) (keloids; [3]): 0.8 cm | keloid shrinkage in height (FIG. 5 patient) (keloids; [3]): 0.5 cm | keloid shrinkage in diameter (FIG. 4 patient) (keloids; [4]): 2 cm | keloid shrinkage in height (FIG. 4 patient) (keloids; [4]): 0.5 cm | efficacy of every other week injections on keloids (keloids; injections every other week): insufficient to treat keloids | patients with reduction in keloid size and shape (keloids; weekly dupilumab injections, African American patients): three of the three | change in keloid size (third patient, FIG. 5) (keloids; weekly subcutaneous 300 mg): noticeable reduction in the keloid size
